Measured values: patent publication US20210269434A1, “TRICYCLIC COMPOUNDS AS INHIBITORS OF KRAS” (Incyte Corporation, priority 2020, published 2021)
Values belong to the compound of their own block, whether it stands above or below them.

Key:
KRAS G12C = KRAS G12C (Homo sapiens, UniProt P01116, G12C); assay: GDP-GTP exchange assay (KRAS_G12C exchange); assay type: biochemical; settings: bodipy-GDP loaded KRAS G12C 2.5 nM, SOS1 150 nM, GppNHp; 2 hours pre-incubation, 2 hours reaction; read-out: G12C_exchange
KRAS G12C, sequence (P01116 1-188 isoform P01116-2 G12C): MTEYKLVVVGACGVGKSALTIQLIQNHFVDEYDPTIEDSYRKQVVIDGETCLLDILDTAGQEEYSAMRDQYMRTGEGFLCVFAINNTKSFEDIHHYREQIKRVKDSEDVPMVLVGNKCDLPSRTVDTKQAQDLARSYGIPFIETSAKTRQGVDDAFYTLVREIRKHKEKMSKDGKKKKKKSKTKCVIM
Outline: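 Fluorescence exchange of bodipy-GDP for GppNHp, SOS1-driven, read at 485/520 nm; IC50 from four-parameter variable-slope fit. Both mutants used 2.5 nM final labelled protein and a 2 h compound pre-incubation. G12C reaction had 500 uM GppNHp and 150 nM SOS1 for 2 h; G12D ran 4 h.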

[1] = tested on: MIA PaCa-2 (KRAS G12C) cells; assay: Cellular pERK HTRF assay (KRAS_G12C pERK); assay type: cell-based, human; settings: Homo sapiens, MIA PaCa-2, 4 hours incubation, read-out: G12C_pERK
Outline: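 Phospho-ERK1/2 HTRF readout (665 and 620 nm) in lysed MIA PaCa-2 cells, antibodies incubated overnight at room temperature. Cells seeded the day before and treated with G12C compounds for 4 h at 37 °C; IC50 fitted to percent inhibition against log inhibitor concentration.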

IC50 (KRAS G12C): ≤ 100 nM | IC50 [1]: ≤ 100 nM
SMILES: CC#CC(=O)N1CC[C@H](n2nnc3c(OC[C@@H]4CCCN4C)nc4c(F)c(-c5ccccc5C(F)(F)F)c(C)cc4c32)C[C@H]1CC#N [Example 162a, 2-((2S,4S)-1-(but-2-ynoyl)-4-(6-fluoro-8-methyl-4-(((S)-1-methylpyrrolidin-2-yl)methoxy)-7-(2-(trifluoromethyl)phenyl)-1H-[1,2,3]triazolo[4,5-c]quinolin-1-yl)piperidin-2-yl)acetonitrile]

IC50 (KRAS G12C): ≤ 100 nM | IC50 [1]: ≤ 100 nM
SMILES: CC#CC(=O)N1CC[C@H](n2nnc3c(N4CC(N(C)C)C4)nc4c(F)c(-c5ccccc5C(F)(F)F)c(C)cc4c32)C[C@H]1CC#N [Example 166a, 2-((2S,4S)-1-(but-2-ynoyl)-4-(4-(3-(dimethylamino)-azetidin-1-yl)-6-fluoro-8-methyl-7-(2-(trifluoromethyl)-phenyl)-1H-[1,2,3]triazolo-[4,5-c]quinolin-1-yl)piperidin-2-yl)acetonitrile]

IC50 (KRAS G12C): ≤ 100 nM | IC50 [1]: ≤ 100 nM
SMILES: CC#CC(=O)N1CC[C@H](n2cnc3c(N4CC(N(C)C)C4)nc4c(F)c(-c5c(C)c(Cl)cc6[nH]ncc56)c(Cl)cc4c32)C[C@H]1CC#N [Example 177a, 2-((2S,4S)-1-(but-2-ynoyl)-4-(8-chloro-7-(6-chloro-5-methyl-1H-indazol-4-yl)-4-(3-(dimethylamino)azetidin-1-yl)-6-fluoro-1H-imidazo[4,5-c]quinolin-1-yl)piperidin-2-yl)acetonitrile]

IC50 (KRAS G12C): ≤ 100 nM | IC50 [1]: ≤ 100 nM
SMILES: Cc1c(Cl)cc2[nH]ncc2c1-c1c(Cl)cc2c(nc(N3CC(N(C)C)C3)c3nnn([C@H]4CCN(C(=O)/C=C/CN(C)C)[C@H](CC#N)C4)c32)c1F [Example 179a, 2-((2S,4S)-4-(8-chloro-7-(6-chloro-5-methyl-1H-indazol-4-yl)-4-(3-(dimethylamino)-azetidin-1-yl)-6-fluoro-1H-[1,2,3]triazolo[4,5-c]quinolin-1-yl)-1-((E)-4-(dimethyl-amino)but-2-enoyl)piperidin-2-yl)acetonitrile]

IC50 (KRAS G12C): ≤ 100 nM | IC50 [1]: ≤ 100 nM
SMILES: Cc1c(Cl)cc2[nH]ncc2c1-c1c(Cl)cc2c(nc(OC[C@@H]3CCCN3C)c3ncn([C@H]4CCN(C(=O)/C=C/CN(C)C)[C@H](CC#N)C4)c32)c1F [Example 181a, 2-((2S,4S)-4-(8-chloro-7-(6-chloro-5-methyl-1H-indazol-4-yl)-6-fluoro-4-(((S)-1-methylpyrrolidin-2-yl)-methoxy)-1H-imidazo[4,5-c]quinolin-1-yl)-1-((E)-4-(dimethylamino)but-2-enoyl)piperidin-2-yl)acetonitrile]

IC50 (KRAS G12C): ≤ 100 nM | IC50 [1]: ≤ 100 nM
SMILES: Cc1c(Cl)cc2[nH]ncc2c1-c1c(Cl)cc2c(nc(OC[C@@H]3CCCN3C)c3nnn([C@H]4CCN(C(=O)/C=C/CN(C)C)[C@H](CC#N)C4)c32)c1F [Example 183a, 2-((2S,4S)-4-(8-chloro-7-(6-chloro-5-methyl-1H-indazol-4-yl)-6-fluoro-4-(((S)-1-methylpyrrolidin-2-yl)-methoxy)-1H-[1,2,3]triazolo-[4,5-c]quinolin-1-yl)-1-((E)-4-(dimethylamino)but-2-enoyl)piperidin-2-yl)acetonitrile]

Second part, the compound before the results:

SMILES: C=CC(=O)N1CC[C@H](n2nnc3c(-n4ccnc4C)nc4c(F)c(-c5ccccc5)c(C)cc4c32)C[C@H]1CC#N [Example 156, 2-((2S,4S)-1-acryloyl-4-(6-fluoro-8-methyl-4-(2-methyl-1H-imidazol-1-yl)-7-phenyl-1H-[1,2,3]triazolo[4,5-c]quinolin-1-yl)piperidin-2-yl)acetonitrile]
IC50 (KRAS G12C): ≤ 100 nM | IC50 [1]: ≤ 100 nM

SMILES: Cc1cc2c(nc(OC[C@@H]3CCCN3C)c3nnn([C@H]4CCN(C(=O)/C=C/CN(C)C)[C@H](CC#N)C4)c32)c(F)c1-c1ccccc1C(F)(F)F [Example 158a, 2-((2S,4S)-1-((E)-4-(dimethylamino)but-2-enoyl)-4-(6-fluoro-8-methyl-4-(((S)-1-methylpyrrolidin-2-yl)methoxy)-7-(2-(trifluoromethyl)phenyl)-1H-[1,2,3]triazolo[4,5-c]quinolin-1-yl)piperidin-2-yl)acetonitrile]
IC50 (KRAS G12C): ≤ 100 nM | IC50 [1]: ≤ 100 nM

SMILES: Cc1cc2c(nc(OC[C@@H]3CCCN3C)c3nnn([C@H]4CCN(C(=O)/C=C/C(F)F)[C@H](CC#N)C4)c32)c(F)c1-c1ccccc1C(F)(F)F [Example 161a, 2-((2S,4S)-1-((E)-4,4-difluorobut-2-enoyl)-4-(6-fluoro-8-methyl-4-(((S)-1-methylpyrrolidin-2-yl)methoxy)-7-(2-(trifluoromethyl)phenyl)-1H-[1,2,3]triazolo[4,5-c]quinolin-1-yl)piperidin-2-yl)acetonitrile]
IC50 (KRAS G12C): ≤ 100 nM | IC50 [1]: ≤ 100 nM

SMILES: C=CC(=O)N1CC[C@H](n2nnc3c(N4CC(N(C)C)C4)nc4c(F)c(-c5c(C)c(Cl)cc6[nH]ncc56)c(C#N)cc4c32)C[C@H]1CC#N [Example 169, 1-((2S,4S)-1-acryloyl-2-(cyanomethyl)piperidin-4-yl)-7-(6-chloro-5-methyl-1H-indazol-4-yl)-4-(3-(dimethylamino)azetidin-1-yl)-6-fluoro-1H-[1,2,3]triazolo[4,5-c]quinoline-8-carbonitrile]
IC50 (KRAS G12C): ≤ 100 nM | IC50 [1]: ≤ 100 nM

SMILES: CC#CC(=O)N1CC[C@H](n2nnc3c(N4CC(N(C)C)C4)nc4c(F)c(-c5c(C)c(Cl)cc6[nH]ncc56)c(C#N)cc4c32)C[C@H]1CC#N [Example 170, 1-((2S,4S)-1-(but-2-ynoyl)-2-(cyanomethyl)piperidin-4-yl)-7-(6-chloro-5-methyl-1H-indazol-4-yl)-4-(3-(dimethylamino)azetidin-1-yl)-6-fluoro-1H-[1,2,3]triazolo[4,5-c]quinoline-8-carbonitrile]
IC50 (KRAS G12C): ≤ 100 nM | IC50 [1]: ≤ 100 nM

SMILES: C=CC(=O)N1CC[C@H](n2cnc3c(N4CC(N(C)C)C4)nc4cc(-c5cccc(Cl)c5C)c(Cl)cc4c32)C[C@H]1CC#N [Example 171, 2-((2S,4S)-1-acryloyl-4-(8-chloro-7-(3-chloro-2-methylphenyl)-4-(3-(dimethylamino)azetidin-1-yl)-1H-imidazo[4,5-c]quinolin-1-yl)piperidin-2-yl)acetonitrile]
IC50 (KRAS G12C): ≤ 100 nM | IC50 [1]: ≤ 100 nM

SMILES: C=CC(=O)N1CC[C@H](n2nnc3c(N4CC(N(C)C)C4)nc4cc(-c5cccc(Cl)c5C)c(C)cc4c32)C[C@H]1CC#N [Example 172, 2-((2S,4S)-1-acryloyl-4-(7-(3-chloro-2-methylphenyl)-4-(3-(dimethylamino)azetidin-1-yl)-8-methyl-1H-[1,2,3]triazolo[4,5-c]quinolin-1-yl)piperidin-2-yl)acetonitrile]
IC50 (KRAS G12C): ≤ 100 nM | IC50 [1]: ≤ 100 nM

SMILES: C=CC(=O)N1CC[C@H](n2cnc3c(-c4cccnc4C)nc4c(F)c(-c5cccc(Cl)c5C)c(Cl)cc4c32)C[C@H]1CC#N [Example 173, 2-((2S,4S)-1-acryloyl-4-(8-chloro-7-(3-chloro-2-methylphenyl)-6-fluoro-4-(2-methylpyridin-3-yl)-1H-imidazo[4,5-c]quinolin-1-yl)piperidin-2-yl)acetonitrile]
IC50 (KRAS G12C): ≤ 100 nM | IC50 [1]: ≤ 100 nM

SMILES: C=CC(=O)N1CC[C@H](n2nnc3c(-c4cccnc4C)nc4c(F)c(-c5cccc(Cl)c5C)c(Cl)cc4c32)C[C@H]1CC#N [Example 174, 2-((2S,4S)-1-acryloyl-4-(8-chloro-7-(3-chloro-2-methylphenyl)-6-fluoro-4-(2-methylpyridin-3-yl)-1H-[1,2,3]triazolo[4,5-c]quinolin-1-yl)piperidin-2-yl)acetonitrile]
IC50 (KRAS G12C): ≤ 100 nM | IC50 [1]: ≤ 100 nM

SMILES: CN(C)C/C=C/C(=O)N1CC[C@H](n2cnc3c(N4CC(N(C)C)C4)nc4c(F)c(-c5cncc6ccccc56)c(Cl)cc4c32)C[C@H]1CC#N [Example 175, 2-((2S,4S)-4-(8-chloro-4-(3-(dimethylamino)azetidin-1-yl)-6-fluoro-7-(isoquinolin-4-yl)-1H-imidazo[4,5-c]quinolin-1-yl)-1-((E)-4-(dimethylamino)but-2-enoyl)piperidin-2-yl)acetonitrile]
IC50 (KRAS G12C): ≤ 100 nM | IC50 [1]: ≤ 100 nM

SMILES: Cc1c(Cl)cc2[nH]ncc2c1-c1c(Cl)cc2c(nc(N3CC(N(C)C)C3)c3ncn([C@H]4CCN(C(=O)/C=C/CN(C)C)[C@H](CC#N)C4)c32)c1F [Example 176, 2-((2S,4S)-4-(8-chloro-7-(6-chloro-5-methyl-1H-indazol-4-yl)-4-(3-(dimethylamino)-azetidin-1-yl)-6-fluoro-1H-imidazo[4,5-c]quinolin-1-yl)-1-((E)-4-(dimethylamino)but-2-enoyl)piperidin-2-yl)acetonitrile]
IC50 (KRAS G12C): ≤ 100 nM | IC50 [1]: ≤ 100 nM

SMILES: CC#CC(=O)N1CC[C@H](n2cnc3c(OC[C@@H]4CCCN4C)nc4c(F)c(-c5c(C)c(Cl)cc6[nH]ncc56)c(Cl)cc4c32)C[C@H]1CC#N [Example 180, 2-((2S,4S)-1-(but-2-ynoyl)-4-(8-chloro-7-(6-chloro-5-methyl-1H-indazol-4-yl)-6-fluoro-4-(((S)-1-methylpyrrolidin-2-yl)methoxy)-1H-imidazo[4,5-c]quinolin-1-yl)piperidin-2-yl)acetonitrile]
IC50 (KRAS G12C): ≤ 100 nM | IC50 [1]: ≤ 100 nM

SMILES: CC#CC(=O)N1CC[C@H](n2nnc3c(OC[C@@H]4CCCN4C)nc4c(F)c(-c5c(C)c(Cl)cc6[nH]ncc56)c(Cl)cc4c32)C[C@H]1CC#N [Example 182, 2-((2S,4S)-1-(but-2-ynoyl)-4-(8-chloro-7-(6-chloro-5-methyl-1H-indazol-4-yl)-6-fluoro-4-(((S)-1-methylpyrrolidin-2-yl)methoxy)-1H-[1,2,3]triazolo[4,5-c]quinolin-1-yl)piperidin-2-yl)acetonitrile]
IC50 (KRAS G12C): ≤ 100 nM | IC50 [1]: ≤ 100 nM
